In patent US10801024B2, “Inhibition of lncRNA HOTAIR and related materials and methods” (Indiana University Research and Technology Corporation, priority 2015, dated 2020):

How the values were obtained:
A2780_CR5 [1] = experiment: Mouse xenograft: tumor volume and survival; assay type: in vivo; details: CDDP-treated mice
Procedure: All animal studies adhered to ethical regulations and protocols. To assess tumorigenicity of cells, cultured A2780_CR5 cells were washed with PBS trypsinized and counted with trypan blue, re-suspended in 1:1 PBS/matrigel (BD Bioscience) and 2×10^6 cells were injected subcutaneously into the left flank of 3- to 4-week-old female nude athymic mice (BALB/c-nu/nu; Harlan, Indianapolis, Ind.). Engrafted mice (n=6 per group) were inspected three times per week for tumor appearance by visual observation and palpation. Once tumors were ˜200 mm^3, mice were treated with either CDDP (2 mg kg−1) or PNA (1 mg kg−1) or both CDDP and PNA twice per week for two weeks. Blood samples were collected by puncturing the left lateral saphenous vein with a needle and collected using a capillary tube. Tumor length (l) and width (w) were measured biweekly using digital calipers and tumor volume (v) was calculated as v=½×1×w2. No randomization was used and no animals were excluded from the final data. […]

IL-6, MMP-9 and ALDH1A1 = experiment: Mouse xenograft: blood IL-6 (ELISA) and tumor expression of HOTAIR targets; assay type: in vivo, mice; details: CDDP alone; after the second bi-weekly treatment
[2] = Mouse xenograft: body weight, spleen and liver weight, histology; assay type: in vivo
Procedure: In another exemplary method, to investigate anti-tumor properties of pHLIP-PNA3 in vivo, BALB/C mice were subcutaneously injected with CDDP-resistant A2780_CR5 (2×10^6 cells). Once tumors reached ˜200 mm^3, mice were injected intravenously (two times per week for 2 weeks) with pHLIP-PNA3 (1 mg/kg), pHLIP-control PNA (1 mg/kg), and/or CDDP (2 mg/kg i.p.) at indicated times (FIG. 14A). Tumor volume was reduced (p=0.02) in mice co-administered pHLIP-PNA3+CDDP compared to pHLIP-control PNA+CDDP (FIG. 13A). Tumor volume in mice treated with either pHLIP-PNA alone was similar to vehicle-treated mice (FIG. 14A). Importantly, survival of mice treated with pHLIP-PNA3 vs. mock was increased 1.6-fold (39 vs. 25 days; FIG. 13B), and body weight was similar among groups (FIG. 14B), showing that PNAs are non-toxic in vivo. […]
All animal studies adhered to ethical regulations and protocols. To assess tumorigenicity of cells, cultured A2780_CR5 cells were washed with PBS trypsinized and counted with trypan blue, re-suspended in 1:1 PBS/matrigel (BD Bioscience) and 2×10^6 cells were injected subcutaneously into the left flank of 3- to 4-week-old female nude athymic mice (BALB/c-nu/nu; Harlan, Indianapolis, Ind.). […] Tumor length (l) and width (w) were measured biweekly using digital calipers and tumor volume (v) was calculated as v=½×1×w2. […]

A2780_CR5 [3] = experiment: Survival assay after inhibiting HOTAIR and/or EZH2; assay type: cell-based; details: dsiRNA targeting HOTAIR combined with GSK126; platinum-resistant cells
Procedure: In one exemplary method, the effect of inhibiting both HOTAIR and EZH2 on cancer cell survival was investigated. A highly platinum-resistant ovarian cancer cell line (A2780_CR5) was treated with dsiRNA targeting HOTAIR and/or a pharmacological inhibitor of EZH2 (GSK126), followed by survival assays. As an additive (P<0.05) effect of inhibiting HOTAIR-EZH2 on drug sensitivity and survival was observed (versus inhibiting either factor alone; FIG. 2A), it was next of interest to target the HOTAIR-EZH2 interaction by targeting the 89-mer minimum interacting region of HOTAIR, which has been shown. mFold (Zuker, M., Mfold web server for nucleic acid folding and hybridization prediction. Nucleic acids research, 2003. 31(13):3406-3415, incorporated herein by reference in its entirety) was used to validate the predicted secondary structure of this site, observing a highly predicted, single-stranded region in all 19 predicted structures, which complemented previous such structures (FIG. 3A).

HOTAIR expression = experiment: Cytokine/chemokine screen, HOTAIR levels; assay type: cell-based; details: A2780 p cells, 10 ng/mL
Procedure: FIG. 11A is a line graph showing changes in HOTAIR target gene expression in A2780 p cells treated with IGF, TGF-β, EGF, IL-1α, or TNF-α (10 ng/mL). Asterisks indicate P<0.05 (*) or P<0.01 (**).
As a positive association between HOTAIR and the master transcription factor NF-κB has been reported. […] In an exemplary method, a cytokine/chemokine screen was performed, followed by the measurement of HOTAIR levels. Of the cytokines examined, HOTAIR expression was increased (P<0.05) by TNF-α (>15-fold) and TGF-β (5-fold) compared to control (FIG. 11A). To further confirm HOTAIR induction of NF-κB, a luciferase reporter construct containing the E-selectin promoter was used (861 base pairs containing 3 canonical NF-κB-p65-binding sites as a positive control; FIG. 3B) (Ozes, O. N., et al., NF-κB activation by tumour necrosis factor requires the Akt serine-threonine kinase. Nature, 1999. 401(6748):82-85, incorporated herein by reference in its entirety) and a 1.4-fold increase (p<0.05) in luciferase activity was observed by ectopic overexpression of HOTAIR compared to vector control (FIG. 11B), which was decreased (P<0.05) by PNA3 (FIG. 11B). PNA3 treatment of breast and ovarian cancer cells decreased (P<0.05) IL-6 secretion into the media (FIG. 11C). […]

A2780_CR5 [4] = experiment: Cell invasion assay (matrigel); assay type: cell-based; details: FIGS. 5D-5E (A2780_CR5 and SKBR-3)
Procedure: In another exemplary method, ovarian cancer cells and breast cancer cells were treated with PNA3 or control PNA. Decreased (P<0.05) invasion of A2780_CR5 (2-fold, FIG. 5D), Kuramochi (0.6-fold, FIG. 9A) and SKBR-3 (2-fold, FIG. 5E) was observed, and the effect of PNA3 on cell invasion was essentially similar to knocking-down HOTAIR expression using siRNA (FIGS. 5D-5E). PNA3 or control PNA had no effect on A2780p and MDA-MB-231 cell invasion (FIGS. 9B-9C).
Cells were grown in 6 cm culture plates until 70% confluence and treated with either PNA3 or control PNA (1 μM final) for 24 hr. Next day, the plates were trypsinized, serially diluted and 50,000 cells were seeded inside a matrigel invasion chamber insert (Corning, Cat #354480) in serum-free media supplemented with 0.1% BSA. Media supplemented with 20% FBS was added to the bottom of the well and 48 hrs later, cells were fixed and dyed using Wright-Giemsa method (Hema 3 Stat pack, Cat #23-122-929) and invasion was counted under a light microscope at 20× magnification. Relative cell invasion was measured by dividing the control number of invaded cells by the PNA-treated samples.

[NH2][Pt]([NH2])([Cl])[Cl] [CDDP, cisplatin]
H&E slides of tumors (A2780_CR5 [1]): fewer cells | blood IL-6 levels compared to controls (IL-6, MMP-9 and ALDH1A1): increased | spleen size compared to mock treated ([2]; CDDP treatment): increased | liver size ([2]; similar trend as spleen): none were statistically significant

CC[C@H](C)n1cc(C)c2c(C(=O)NCc3c(C)cc(C)[nH]c3=O)cc(-c3ccc(N4CCNCC4)nc3)cc21 [GSK126]
effect on drug sensitivity and survival of inhibiting both HOTAIR and EZH2 versus either alone (A2780_CR5 [3]): additive

TGF-β
HOTAIR expression increase compared to control (HOTAIR expression): 5 fold

TNF-α
HOTAIR expression increase compared to control (HOTAIR expression): > 15 fold

dsiRNA targeting HOTAIR: dsiRNA targeting human HOTAIR, sense SEQ ID NO: 22, antisense SEQ ID NO: 23 (sense UUCUAAAUCCGUUCCAUUCCACUGCGA; antisense GCAGUGGAAUGGAACGGAUUUAGAA; antisense strand carries a 5'-phosphate, other chemistry not given here, further chemistry not given here)
cell invasion, in words (A2780_CR5 [4]): decrease | effect on drug sensitivity and survival of inhibiting both HOTAIR and EZH2 versus either alone (A2780_CR5 [3]): additive
